In US8859215B2, “Cell binding assay” (GE Healthcare Bio-Sciences AB, priority 2011, dated 2014):
“Also recorded” adds a separate entry of the source.

Test system: Multicellular Tumor Spheroids (MTS)
Assay: Fluorescent cell binding assay: Cy3 Annexin V binding to drug treated cells, Western blotting, normalized to actin (apoptosis assay)
Assay type: cell-based
Protocol: Doxorubicin is an anti-cancer drugs aimed to inhibit uncontrolled cell proliferation by inducing apoptosis in cells. Multicellular Tumor Spheroids were treated with Doxorubicin and incubated with Cy 3 Annexin V. The cells are lysed and the proteins are separated and transferred to a membrane. Cy 3 Annexin V can be detected simultaneously with actin targeted by ECL Plex Cy5Western Blotting. The amount of Annexin V binding to the cells upon treatment can easily be quantified after normalization to the house-keeping protein actin.
Cancer cells, Multicellular Tumor Spheroids (MTS) (Sanitini et al. Critical Rev Oncol Hematol 2001, 36:75-87) were treated for 3 days with […] different concentrations (1 μM, 5 μM and 10 μM) of the cancer drug Doxorubicin. To determine the level of drug induced apoptosis the cells were incubated with Cy3 conjugated Annexin V. Non-bound Cy 3 Annexin V was washed away with PBS followed by cell lysis using mammalian cell protein extraction buffer (GE Healthcare). […]
The signals from bound Cy 3 Annexin V and Cy 5 actin are detected simultaneously by scanning the membrane in Cy3 and Cy5 channels using a Typhoon Imager (GE Healthcare, FIG. 2a). The image was analysed with Image Quant TL software (GE Healthcare). […] In this way any uneven sample loading is corrected for and very accurate quantification of the cells capacity to bind Annexin V is determined. […]

SMILES: COc1cccc2c1C(=O)c1c(O)c3c(c(O)c1C2=O)C[C@@](O)(C(=O)CO)C[C@@H]3O[C@H]1C[C@H](N)[C@H](O)[C@H](C)O1 [Doxorubicin]
- Annexin V binding to cells (signal ratio Cy3 Annexin V : Cy5 actin), indicating apoptosis (cancer cells (MTS) treated for 3 days with 1 μM, 5 μM and 10 μM, compared against control (no treatment)): dose dependent binding of Annexin V to treated cells; also recorded: dose dependent Annexin V binding to cells up to 5 μM
- Annexin V binding to cells (signal ratio Cy3 Annexin V : Cy5 actin) (treatment with 10 μM for 3 days, MTS cells): decrease of the Annexin V binding
